From patent publication US11352358B2, “FXR agonist” (XUANZHU BIOPHARMACEUTICAL CO., LTD., priority 2017, dated 2022) come the findings set out here.

Molecules are shown by their SMILES.

In general, EC50 refers to the concentration at which the effect is half-maximal. The IC50 is the concentration at which inhibition is half-maximal.

One data set relates to BSEP mRNA in HepG2 cells. The data set can be described thus: Relative expression of BSEP mRNA in HepG2 cells, EC50 (Experimental Example 3). Particulars: Homo sapiens, 24 hrs. The data set is classed as cell-based. As for the experimental part: (§1) compounds of the present invention (for their chemical names and preparation methods, see the preparation example for each compound).
(§2) HepG2 cell: human liver cancer cell;
BSEP: bile salt export pump;
(§3) Control: compound 1-1B with a structure shown as follows, prepared according to a prior art method (for detailed information, see patent application WO2012087519A1).
(§4) Cells were digested with pancreatin and collected, and the concentration of the cells was determined; according to the counting result, the cells were resuspended to a density of 7.5×10^5 cells/mL; 2 mL of the cell suspension was inoculated in each well of a 6-well cell culture plate; and the culture plate was placed in an incubator and cultured under the conditions of 37° C. and 5% CO2 for 24 hrs.
(§5) The compounds were diluted to 3000, 1000, 200, 8, 1.6, 0.32, 0.0128, 0.00256 and 0.000512 μM with DMSO. Compound solutions of different concentrations obtained in the previous step were further diluted by 1,000 times with media to obtain working solutions, and a medium containing 0.1% of DMSO was adopted as a control group. The cell culture plate was taken out from the incubator, the medium was removed, and the working solutions and the control medium were added. The culture plate was placed back into the incubator and cultured under the conditions of 37° C. and 5% CO2 for 24 hrs. […]

Data set [1] deals with CYP7A1 mRNA in HepG2 cells. In words: Relative expression of CYP7A1 mRNA in HepG2 cells, IC50 (Experimental Example 3). The data set is classed as cell-based. The conditions noted are these: Homo sapiens, 24 hrs. The protocol: as §1, §2
CYP7A1: cholesterol 7-alpha hydroxylase;
as §3, §4, §5

The test system of the next data set is SHP mRNA in HepG2 cells. The data set can be described thus: Relative expression of SHP mRNA in HepG2 cells, EC50 (Experimental Example 3). The data set is classed as cell-based. The conditions noted are these: Homo sapiens, 24 hrs. The protocol: as §1, §2
SHP: small heterodimer partner;
as §3, §4, §5

The next data set has as its system SHP mRNA in AML12 cells. The data set can be described thus: Relative expression of SHP mRNA in AML12 cells, EC50 (Experimental Example 4). The data set is classed as cell-based. Particulars: Mus musculus, 24 hrs. The protocol:
as §1
AML12 cells: mouse liver cells.
as §3
Cells were digested with pancreatin and collected, and the concentration of the cells was determined; according to the counting result, the cells were resuspended to a density of 7.5×10^4 cells/mL; 1 mL of the cell suspension was inoculated in each well of a 12-well cell culture plate; and the culture plate was placed in an incubator and cultured under the conditions of 37° C. and 5% CO2 for 24 hrs.
The compound were diluted to 1000, 200, 8, 1.6, 0.32, 0.128, 0.0256 and 0.00512 μM with DMSO. Compound solutions of different concentrations obtained in the previous step were further diluted by 1000 times with media to obtain working solutions, and a medium containing 0.1% of DMSO was adopted as a control group. The cell culture plate was taken out from the incubator, the medium was removed, and the working solutions and the control medium were added. The culture plate was placed back into the incubator and cultured under the conditions of 37° C. and 5% CO2 for 24 hrs.
after treatment for 24 hrs, the cell culture plate was taken out from the incubator, and the medium was removed from the plate; the cells were rinsed three times with pre-cooled (4° C.) PBS (phosphate buffer solution); and 200 μL of pancreatin (preheated to 37° C.) was added to each well, and the plate was then gently shaken such that the pancreatin could evenly cover the plate bottom. The culture plate was then placed back into the incubator and incubated until the cells were separated from the plate bottom. 1 mL of medium was added to terminate digestion. […]

Data set [2] is described as follows: Liver microsome metabolism stability, rat liver microsome. The data set is classed as in vitro ADME, SD rat. The conditions noted are these: 0.5 mg protein/mL, test sample 1 μM, β-NADPH. The protocol: (§6) Test samples: the homemade compounds 1, 2, 4 and 5 of the present invention (for their chemical names and preparation methods, see the preparation example for each compound).
(§7) a mixed liver microsomes of SD rat and human both purchased from XenoTech, with batch Nos.: 1410271 (SD rat) and 1410013 (human) respectively, wherein the microsomal protein concentrations both were 20 mg mL^−1;
(§8) experimental promoter β-NADPH purchased from Roche (batch No.: 524F0231); and a phosphate buffer solution (pH 7.4) made in the lab.
(§9) An appropriate amount of the test sample powder was weighed accurately, and dissolved in an appropriate amount of dimethyl sulfoxide (DMSO) to a concentration of 1 mM; and the solution was then diluted by 20 times with methanol to yield a 50 μM working solution.
(§10) (1) According to the proportions in table 3 “Composition of the incubation system for liver microsome metabolism stability experiment” above, for each compound, 6 mL of PBS (100 mM), 0.6 mL of MgCl2 solution (20 mM) and 3.66 mL of H2O were made into a mixed solution 1 for the incubation system (not containing the microsomes, the test sample and β-NADPH).
(§11) (2) Liver microsomes (20 mg protein/mL) were taken from a refrigerator (−80° C.), and were placed on a thermostatic water bath oscillator (37° C.) and pre-incubated for 3 mins.
(§12) (3) For each compound, 1.88 mL of the mixed solution 1 for the incubation system was added with 55 μL of microsomes to obtain a mixed solution 2 for the incubation system (not containing the test sample and β-NADPH).
(§13) (4) Sample group (containing the microsomes and D-NADPH): 616 μL of mixed solution 2 for the incubation system was added with 14 μL of the test sample working solution (with a concentration of 50 μM), and with 70 μL of R-NADPH working solution (10 mM). The resulted solution was well mixed, and the resulted solution was then duplicated. The time points of sampling were at 0 min, 5th min, 10th min, 20th min, 30th min and 60th min.
(§14) (5) Control group (containing the microsomes, and water instead of D-NADPH): 264 μL of mixed solution 2 for the incubation system was added with 6 μL of the test sample working solution (50 μM), and with 30 μL of water. The resulted solution was well mixed, and the resulted solution was then duplicated. The time points of sampling were at 0 min and 60th min.
(§15) (6) 50 μL of sample was taken from an incubating sample tube at each predetermined time point, added to a terminating sample tube (containing 300 μL of cold terminator), and vortexed; and the reaction was terminated.
(§16) (7) after 10 mins of vortexing, the solution was centrifuged for 5 mins (12,000 rpm).
(§17) (8) 100 μL of supernatant was taken and added with 100 μL of water, and the mixture solution was thoroughly vortexed; and the solution was then analyzed by LC-MS/MS.
(§18) Percentages of residual contents were calculated according to the following formula.

The nature of data set [3]: Liver microsome metabolism stability, human liver microsome. The data set is classed as in vitro ADME. The conditions noted are these: 0.5 mg protein/mL, test sample 1 μM, β-NADPH. The protocol: as §6, §7, §8, §9, §10, §11, §12, §13, §14, §15, §16, §17, §18
Background: Liver microsomes are a subcellular fraction often used to study metabolism.

On to `O=C(O)c1cc(F)c2nc(N3[C@@H]4CC[C@H]3C[C@@H](OCc3c(-c5ccccc5OC(F)(F)F)noc3C3CC3)C4)sc2c1` [Compound 1-1B, reference compound], for which the EC50 in the data set on BSEP mRNA in HepG2 cells came out at 0.75 nM; with SHP mRNA in HepG2 cells, 0.26 nM; in the data set with SHP mRNA in AML12 cells, 1.51 nM. The compound further registered an IC50 in data set [1] of 0.1 nM.
With `O=C(O)c1cc(F)c2nc(N3C[C@@H]4C[C@H]3C[C@H]4OCc3c(-c4ccccc4OC(F)(F)F)noc3C3CC3)sc2c1` [Compound 8, 2-((1S, 4S, 5R)-5-((5-cyclopropyl-3-(2-(trifluoromethoxy)phenyl)isoxazol-4-yl)methoxy)-2-azabicyclo[2.2.1]heptan-2-yl)-4-fluorobenzo[d]thiazole-6-formic acid], the EC50 with BSEP mRNA in HepG2 cells amounted to 0.35 nM; in the data set with SHP mRNA in HepG2 cells, 0.09 nM; in the data set on SHP mRNA in AML12 cells, 0.89 nM. In data set [1], this compound yielded an IC50 of 0.02 nM. In addition, the “Residual content (%) after 60 minutes of incubation” value in data set [2] was found to be 73%; in data set [3], 96%.
